PMC12266337 (Biochemistry, 2025)
Where a SMILES comes first, the peptide text is derived from it. Where no end group is shown, it is not given here. [ ]: non-standard residue; d: D form.

Target: T1, ComD receptor (Streptococcus constellatus, UniProt O33616)
Assay: Luciferase reporter activation
Type: cell-based
Details: not given

First: CC[C@H](C)[C@H](NC(=O)[C@H](CCCNC(=N)N)NC(=O)[C@H](CO)NC(=O)[C@H](N)CC(=O)O)C(=O)N[C@@H](CCCNC(=N)N)C(=O)N[C@@H](CCSC)C(=O)NCC(=O)N[C@@H](Cc1ccccc1)C(=O)N[C@@H](CC(=O)O)C(=O)N[C@@H](Cc1ccccc1)C(=O)N[C@@H](CO)C(=O)N[C@@H](CCCCN)C(=O)N[C@@H](CC(C)C)C(=O)N[C@@H](Cc1ccccc1)C(=O)NCC(=O)N[C@@H](CCCCN)C(=O)O [CSP-d1] (H-[dD]SRIRMGFDFSKLFGK-OH)
Second: CC[C@H](C)[C@H](NC(=O)[C@H](CCCNC(=N)N)NC(=O)[C@H](CO)NC(=O)[C@@H](N)CC(=O)O)C(=O)N[C@@H](CCCNC(=N)N)C(=O)N[C@H](CCSC)C(=O)NCC(=O)N[C@@H](Cc1ccccc1)C(=O)N[C@@H](CC(=O)O)C(=O)N[C@@H](Cc1ccccc1)C(=O)N[C@@H](CO)C(=O)N[C@@H](CCCCN)C(=O)N[C@@H](CC(C)C)C(=O)N[C@@H](Cc1ccccc1)C(=O)NCC(=O)N[C@@H](CCCCN)C(=O)O [CSP-m6] (H-DSRIR[dM]GFDFSKLFGK-OH)
The EC50 of the first is 3.6-fold lower: 9.7 nM for the first, 35 nM for the second. The first is the more potent here.

`CC[C@H](C)[C@H](NC(=O)[C@H](CCCNC(=N)N)NC(=O)[C@H](CO)NC(=O)[C@@H](N)CC(=O)O)C(=O)N[C@@H](CCCNC(=N)N)C(=O)N[C@@H](CCSC)C(=O)NCC(=O)N[C@@H](Cc1ccccc1)C(=O)N[C@@H](CC(=O)O)C(=O)N[C@@H](Cc1ccccc1)C(=O)N[C@@H](CO)C(=O)N[C@H](CCCCN)C(=O)N[C@@H](CC(C)C)C(=O)N[C@@H](Cc1ccccc1)C(=O)NCC(=O)N[C@@H](CCCCN)C(=O)O` [CSP-k12] (H-DSRIRMGFDFS[dK]LFGK-OH) and DSRIRMGFDFSKLFGA [CSP K16A] are within 1.5-fold of each other in EC50: 3.7 nM for the first, 2.5 nM for the second.

`CC[C@H](C)[C@H](NC(=O)[C@H](CCCNC(=N)N)NC(=O)[C@H](CO)NC(=O)[C@@H](N)CC(=O)O)C(=O)N[C@@H](CCCNC(=N)N)C(=O)N[C@@H](CCSC)C(=O)NCC(=O)N[C@@H](Cc1ccccc1)C(=O)N[C@@H](CC(=O)O)C(=O)N[C@@H](Cc1ccccc1)C(=O)N[C@@H](CO)C(=O)N[C@@H](CCCCN)C(=O)N[C@@H](CC(C)C)C(=O)N[C@@H](Cc1ccccc1)C(=O)NCC(=O)N[C@H](CCCCN)C(=O)O` [CSP-k16] (H-DSRIRMGFDFSKLFG[dK]-OH) and DSRIRAGFDFSKLFGK [CSP M6A] are within 1.5-fold of each other in EC50: 1.7 nM for the first, 1.9 nM for the second.

First: CC[C@H](C)[C@H](NC(=O)[C@H](CCCNC(=N)N)NC(=O)[C@H](CO)NC(=O)[C@@H](N)CC(=O)O)C(=O)N[C@H](CCCNC(=N)N)C(=O)N[C@@H](CCSC)C(=O)NCC(=O)N[C@@H](Cc1ccccc1)C(=O)N[C@@H](CC(=O)O)C(=O)N[C@@H](Cc1ccccc1)C(=O)N[C@@H](CO)C(=O)N[C@@H](CCCCN)C(=O)N[C@@H](CC(C)C)C(=O)N[C@@H](Cc1ccccc1)C(=O)NCC(=O)N[C@@H](CCCCN)C(=O)O [CSP-r5] (H-DSRI[dR]MGFDFSKLFGK-OH)
Second: CC[C@H](C)[C@H](NC(=O)[C@H](CCCNC(=N)N)NC(=O)[C@H](CO)NC(=O)[C@@H](N)CC(=O)O)C(=O)N[C@@H](CCCNC(=N)N)C(=O)N[C@@H](CCSC)C(=O)NCC(=O)N[C@@H](Cc1ccccc1)C(=O)N[C@@H](CC(=O)O)C(=O)N[C@@H](Cc1ccccc1)C(=O)N[C@@H](CO)C(=O)N[C@@H](CCCCN)C(=O)N[C@@H](CC(C)C)C(=O)N[C@H](Cc1ccccc1)C(=O)NCC(=O)N[C@@H](CCCCN)C(=O)O [CSP-f14] (H-DSRIRMGFDFSKL[dF]GK-OH)
The EC50 of the first is 24-fold higher: 47 nM for the first, 2 nM for the second. The second is the more potent here.

“DSRIRMGFDFSKLFGK [Native CSP, reference compound]” and DARIRMGFDFSKLFGK [CSP S2A] are within 1.5-fold of each other in EC50: 5.2 nM for the first, 5.6 nM for the second.

First: DSRARMGFDFSKLFGK [CSP I4A]
Second: CC[C@H](C)[C@H](NC(=O)[C@H](CCCNC(=N)N)NC(=O)[C@H](CO)NC(=O)[C@@H](N)CC(=O)O)C(=O)N[C@@H](CCCNC(=N)N)C(=O)N[C@@H](CCSC)C(=O)NCC(=O)N[C@@H](Cc1ccccc1)C(=O)N[C@@H](CC(=O)O)C(=O)N[C@@H](Cc1ccccc1)C(=O)N[C@@H](CO)C(=O)N[C@@H](CCCCN)C(=O)N[C@H](CC(C)C)C(=O)N[C@@H](Cc1ccccc1)C(=O)NCC(=O)N[C@@H](CCCCN)C(=O)O [CSP-l13] (H-DSRIRMGFDFSK[dL]FGK-OH)
The EC50 of the first is 280-fold lower: 0.089 nM for the first, 25 nM for the second. The first is the more potent here.

Compared with DSRIAMGFDFSKLFGK [CSP R5A], `CC[C@@H](C)[C@@H](NC(=O)[C@H](CCCNC(=N)N)NC(=O)[C@H](CO)NC(=O)[C@@H](N)CC(=O)O)C(=O)N[C@@H](CCCNC(=N)N)C(=O)N[C@@H](CCSC)C(=O)NCC(=O)N[C@@H](Cc1ccccc1)C(=O)N[C@@H](CC(=O)O)C(=O)N[C@@H](Cc1ccccc1)C(=O)N[C@@H](CO)C(=O)N[C@@H](CCCCN)C(=O)N[C@@H](CC(C)C)C(=O)N[C@@H](Cc1ccccc1)C(=O)NCC(=O)N[C@@H](CCCCN)C(=O)O` [CSP-i4] (H-DSR[dI]RMGFDFSKLFGK-OH) is 5.2-fold higher in EC50: 4.8 nM for the first, 25 nM for the second.

First: CC[C@H](C)[C@H](NC(=O)[C@@H](CCCNC(=N)N)NC(=O)[C@H](CO)NC(=O)[C@@H](N)CC(=O)O)C(=O)N[C@@H](CCCNC(=N)N)C(=O)N[C@@H](CCSC)C(=O)NCC(=O)N[C@@H](Cc1ccccc1)C(=O)N[C@@H](CC(=O)O)C(=O)N[C@@H](Cc1ccccc1)C(=O)N[C@@H](CO)C(=O)N[C@@H](CCCCN)C(=O)N[C@@H](CC(C)C)C(=O)N[C@@H](Cc1ccccc1)C(=O)NCC(=O)N[C@@H](CCCCN)C(=O)O [CSP-r3] (H-DS[dR]IRMGFDFSKLFGK-OH)
Second: CC[C@H](C)[C@H](NC(=O)[C@H](CCCNC(=N)N)NC(=O)[C@@H](CO)NC(=O)[C@@H](N)CC(=O)O)C(=O)N[C@@H](CCCNC(=N)N)C(=O)N[C@@H](CCSC)C(=O)NCC(=O)N[C@@H](Cc1ccccc1)C(=O)N[C@@H](CC(=O)O)C(=O)N[C@@H](Cc1ccccc1)C(=O)N[C@@H](CO)C(=O)N[C@@H](CCCCN)C(=O)N[C@@H](CC(C)C)C(=O)N[C@@H](Cc1ccccc1)C(=O)NCC(=O)N[C@@H](CCCCN)C(=O)O [CSP-s2] (H-D[dS]RIRMGFDFSKLFGK-OH)
The EC50 of the first is 1.6-fold higher: 13 nM for the first, 7.9 nM for the second.

Same assay, conditions: ΔcomC PcomX::luc reporter, agonism screening

With DSAIRMGFDFSKLFGK [CSP R3A] the “QS activation (result in words)” value was “complete loss of function”.
With DSRIRMGFDFSKLAGK [CSP F14A] the “QS activation (result in words)” value was “abolished QS activation”.

Target: T1, ComD receptor
Assay: not given
Type: cell-based
Details: not given

Work on ASRIRMGFDFSKLFGK [CSP D1A] yielded an IC50 of 120 nM.
